The source of these data is the RepoRT retention time repository (doi:10.1016/j.jchromb.2020.122105).

Conditions in all cases: stereoisomer not certain
Data set [1] in a line: RP, Waters CORTECS T3, 100 × 2.1 mm, 2.7 µm, 0.2 mL/min, estimated dead time 1.1 min; A: water + 0.1% formic acid, pH 3; B: methanol + 0.1% formic acid, pH 3; gradient (min/%B) 0/0 1/0 6/5 30/100 35/100 35.1/0 40/0.
A short description of data set [2]: HILIC, Merck SeQuant ZIC-HILIC, 150 × 2.1 mm, 5 µm, 0.75 mL/min, estimated dead time 0.44 min; A: water + 0.1% acetic acid + 10 mM ammonium acetate, pH 4; B: 5% water + 95% acetonitrile + 0.1% acetic acid + 10 mM ammonium acetate, pH 4; gradient (min/%B) 0/95 5/95 20/57 25/57 30/95 40/95.
A short description of data set [3]: RP, Waters CORTECS T3, 100 × 2.1 mm, 2.7 µm, 0.2 mL/min, estimated dead time 1.1 min; A: water + 0.1% formic acid, pH 3; B: methanol + 0.1% formic acid, pH 3; gradient (min/%B) 0/5 5/5 25/95 25.1/100 35/100 35.1/5 45/5.
Data set [4] is described as follows: HILIC, Waters XBridge BEH Amide, 100 × 2.1 mm, 2.5 µm, 0.5 mL/min, estimated dead time 0.44 min; A: water + 0.1% acetic acid + 10 mM ammonium acetate, pH 4; B: 5% water + 95% acetonitrile + 0.1% acetic acid + 10 mM ammonium acetate, pH 4; gradient (min/%B) 0/95 5/95 20/57 25/57 30/95 40/95.
Data set [5] can be described thus: RP, Waters CORTECS T3, 100 × 2.1 mm, 2.7 µm, 0.25 mL/min, estimated dead time 0.88 min; A: water + 0.1% formic acid, pH 3; B: methanol + 0.1% formic acid, pH 3; gradient (min/%B) 0/5 5/5 25/95 25.1/100 35/100 35.1/5 45/5.
Data set [6] in a line: RP, Waters ACQUITY UPLC BEH C18, 100 × 2.1 mm, 1.7 µm, 0.1 mL/min, estimated dead time 2.2 min; A: water + 0.1% formic acid, pH 3; B: methanol + 0.1% formic acid, pH 3; gradient (min/%B) 0/5 5/5 25/95 25.1/100 35/100 35.1/5 45/5.
Data set [7] in a line: RP, Waters CORTECS T3, 100 × 2.1 mm, 2.7 µm, 0.3 mL/min, estimated dead time 0.73 min; A: water + 0.1% formic acid, pH 3; B: methanol + 0.1% formic acid, pH 3; gradient (min/%B) 0/0 5/0 25/100 30/100 30.1/0 35/0.
Data set [8] in a line: RP, Waters CORTECS T3, 100 × 2.1 mm, 2.7 µm, 0.3 mL/min, estimated dead time 0.73 min; A: water + 0.1% formic acid, pH 3; B: methanol + 0.1% formic acid, pH 3; gradient (min/%B) 0/0 1/0 6/5 30/100 35/100 35.1/0 40/0.
Data set [9] can be described thus: RP, Thermo Scientific Hypercarb, 150 × 2.1 mm, 5 µm, 0.1 mL/min, estimated dead time 3.3 min; A: water + 0.1% formic acid, pH 3; B: methanol + 0.1% formic acid, pH 3; gradient (min/%B) 0/5 5/5 20/100 35/100 35.1/5 45/5.
Data set [10] is described as follows: RP, Waters ACQUITY UPLC BEH C18, 100 × 2.1 mm, 1.7 µm, 0.2 mL/min, estimated dead time 1.1 min; A: water + 0.025% formic acid + 20 mM ammonium acetate + 0.055% ammonium hydroxide, pH 7; B: methanol; gradient (min/%B) 0/5 5/5 25/100 30/100 30.1/5 35/5.
Assay in data set [11]: as above
This is another data set of the same source.

A short description of data set [12]: HILIC, Merck SeQuant ZIC-HILIC, 150 × 2.1 mm, 5 µm, 0.75 mL/min, estimated dead time 0.44 min; A: water + 10 mM ammonium formate, pH 6; B: 5% water + 95% acetonitrile + 10 mM ammonium formate, pH 6; gradient (min/%B) 0/95 5/95 20/57 25/57 30/95 40/95.
Data set [13] is described as follows: RP, Waters ACQUITY UPLC BEH C18, 100 × 2.1 mm, 1.7 µm, 0.2 mL/min, estimated dead time 1.1 min; A: water + 0.1% formic acid, pH 3; B: methanol + 0.1% formic acid, pH 3; gradient (min/%B) 0/5 5/5 25/100 30/100 30.1/5 35/5.
Data set [14] can be described thus: RP, Waters CORTECS T3, 100 × 2.1 mm, 2.7 µm, 0.2 mL/min, estimated dead time 1.1 min; A: water + 0.045% formic acid + 0.11% ammonium hydroxide, pH 7; B: methanol; gradient (min/%B) 0/5 5/5 25/95 25.1/100 35/100 35.1/5 45/5.
A short description of data set [15]: RP, Waters CORTECS T3, 100 × 2.1 mm, 2.7 µm, 0.3 mL/min, estimated dead time 0.73 min; A: water + 0.1% formic acid, pH 3; B: methanol + 0.1% formic acid, pH 3; gradient (min/%B) 0/5 5/5 25/95 25.1/100 35/100 35.1/5 45/5.
The nature of data set [16]: RP, Waters CORTECS T3, 100 × 2.1 mm, 2.7 µm, 0.2 mL/min, estimated dead time 1.1 min; A: water + 0.1% formic acid, pH 3; B: methanol + 0.1% formic acid, pH 3; gradient (min/%B) 0/0 1/0 6/5 30/100 35/100 35.1/0 40/0. This is another data set of the same source.
Data set [17] can be described thus: RP, Waters CORTECS T3, 100 × 2.1 mm, 2.7 µm, 0.3 mL/min, estimated dead time 0.73 min; A: water + 0.1% formic acid, pH 3; B: methanol + 0.1% formic acid, pH 3; gradient (min/%B) 0/5 5/5 25/100 30/100 30.1/5 35/5.
Data set [18] in a line: RP, Waters CORTECS T3, 100 × 2.1 mm, 2.7 µm, 0.3 mL/min, estimated dead time 0.73 min; A: water + 0.1% formic acid, pH 3; B: methanol + 0.1% formic acid, pH 3; gradient (min/%B) 0/0 1/0 6/5 30/100 35/100 35.1/0 40/0. The source holds these as a separate data set.
A short description of data set [19]: RP, Waters CORTECS T3, 100 × 2.1 mm, 2.7 µm, 0.1 mL/min, estimated dead time 2.2 min; A: water + 0.1% formic acid, pH 3; B: methanol + 0.1% formic acid, pH 3; gradient (min/%B) 0/0 1/0 6/5 30/100 35/100 35.1/0 40/0.
Data set [20] is described as follows: RP, Waters ACQUITY UPLC BEH C18, 100 × 2.1 mm, 1.7 µm, 0.1 mL/min, estimated dead time 2.2 min; A: water + 0.1% formic acid, pH 3; B: methanol + 0.1% formic acid, pH 3; gradient (min/%B) 0/5 5/5 25/100 30/100 30.1/5 35/5.
A short description of data set [21]: RP, Waters CORTECS T3, 100 × 2.1 mm, 2.7 µm, 0.3 mL/min, estimated dead time 0.73 min; A: water + 0.1% formic acid, pH 3; B: methanol + 0.1% formic acid, pH 3; gradient (min/%B) 0/0 5/0 25/100 30/100 30.1/0 35/0. This is another data set of the same source.
Data set [22] can be described thus: RP, Waters CORTECS T3, 100 × 2.1 mm, 2.7 µm, 0.15 mL/min, estimated dead time 1.5 min; A: water + 0.1% formic acid, pH 3; B: methanol + 0.1% formic acid, pH 3; gradient (min/%B) 0/0 1/0 6/5 30/100 35/100 35.1/0 40/0.
A short description of data set [23]: RP, Waters ACQUITY UPLC BEH C18, 100 × 2.1 mm, 1.7 µm, 0.1 mL/min, estimated dead time 2.2 min; A: water + 0.045% formic acid + 0.11% ammonium hydroxide, pH 7; B: methanol; gradient (min/%B) 0/5 5/5 25/95 25.1/100 35/100 35.1/5 45/5.
Data set [24] can be described thus: RP, Waters CORTECS T3, 100 × 2.1 mm, 2.7 µm, 0.25 mL/min, estimated dead time 0.88 min; A: water + 0.1% formic acid, pH 3; B: methanol + 0.1% formic acid, pH 3; gradient (min/%B) 0/0 1/0 6/5 30/100 35/100 35.1/0 40/0.
A short description of data set [25]: RP, Waters CORTECS T3, 100 × 2.1 mm, 2.7 µm, 0.1 mL/min, estimated dead time 2.2 min; A: water + 0.1% formic acid, pH 3; B: methanol + 0.1% formic acid, pH 3; gradient (min/%B) 0/5 5/5 25/95 25.1/100 35/100 35.1/5 45/5.

For `O=c1ccn(C2OC(COP(=O)(O)O)C(O)C2O)c(=O)[nH]1` (centres undefined) [URIDINE-5-MONOPHOSPHATE], the LC retention time in data set [1] is 1.35 min; in data set [2], 13.6 min; in [3] it was 2.67 min; in data set [4], 14 min; in data set [5] it was 1.08 min; in data set [6] it was 2.7 min. Besides, the values for the LC retention time in data set [7] and in data set [8] were 0.89 min and 0.92 min, respectively.
On to `Cn1cncc1CC(NC(=O)CCN)C(=O)O` [L-ANSERINE], for which the LC retention time in data set [9] was 4.86 min; in data set [3] it was 2.43 min; in data set [4], 15 min; in [10], 1.41 min; in [11], 1.42 min.
Turning to `OCC1OC(OCC2OC(OC3(CO)OC(CO)C(O)C3O)C(O)C(O)C2O)C(O)C(O)C1O` [D-(+)-RAFFINOSE], the LC retention time in data set [3] and in data set [6] was 2.67 min in each case.
For the molecule `NCCS(=O)(=O)O` [TAURINE], the LC retention time in [2] is 12 min; in data set [3] it was 2.48 min; in data set [4], 11.4 min; in data set [12], 12.3 min.
On to `CC(=O)NC(CC(N)=O)C(=O)O` [N-ALPHA-ACETYL-L-ASPARAGINE], for which the LC retention time in data set [1] was 1.35 min; in data set [2], 11.8 min; in data set [3], 2.67 min; in [4], 12.1 min; in [13], 1.38 min; in data set [5], 1.08 min. Besides, the values for the LC retention time in data set [6] and in data set [7] were 2.7 min and 0.89 min, respectively.
As for `O=C([O-])[C@H](O)[C@@H](O)[C@H](O)[C@H](O)CO` [D-GLUCONATE], the LC retention time is 12.9 min in data set [2], 2.58 min in data set [3], 17 min in data set [4] and 13 min in data set [12].
For `COc1ccc2[nH]cc(CCNC(C)=O)c2c1` [MELATONIN], the LC retention time in data set [14] is 14.5 min; in data set [15], 13.1 min; in [16], 16.2 min; in [17] it was 12.8 min; in [18] it was 14.8 min; in data set [19], 14.4 min. Further, the LC retention time in data set [20] was 17.6 min; in data set [4], 0.63 min; in data set [21] it was 13.6 min; in data set [22], 17.5 min; in [23] it was 17.8 min; in data set [24] it was 15.4 min. For the same molecule, the results for the LC retention time in data set [10], in [11] and in [25] were 14.4 min, 14.4 min and 17.7 min, respectively.
Regarding `CC(C)=CC(=O)SCCNC(=O)CCNC(=O)C(O)C(C)(C)COP(=O)(O)OP(=O)(O)OCC1OC(n2cnc3c(N)ncnc32)C(O)C1OP(=O)(O)O` (centres undefined) [3-METHYLCROTONYL-COA], the LC retention time in [10] was 8.78 min.
As to `C=CC1=C(C)C(=Cc2[nH]c(Cc3[nH]c(C=C4NC(=O)C(C)=C4C=C)c(C)c3CCC(=O)O)c(CCC(=O)O)c2C)NC1=O` [BILIRUBIN], the LC retention time is 24.4 min in data set [14], 1.32 min in data set [2], 26.9 min in data set [23] and 1.06 min in data set [12].
Consider `Nc1ncnc2c1ncn2[C@@H]1O[C@H](CSCC[C@H]([NH3+])C(=O)[O-])[C@@H](O)[C@H]1O` [S-(5'-ADENOSYL)-L-HOMOCYSTEINE], for which the LC retention time was 0.9 min in [15]; 1.34 min in data set [16]; 12.3 min in [2]; 2.67 min in data set [3]; 2.74 min in [20]; 1.38 min in data set [13]. The LC retention time was 1.09 min in data set [24] and 2.67 min in [6].
